Test results reported in patent publication US10766903B2 (ALMAC DISCOVERY LIMITED, priority 2016, dated 2020).

The compounds below were run against USP7 (Homo sapiens (Human), UniProt Q93009) (assay: USP7 fluorescence polarisation (FP) biochemical assay, ubiquitin-Lys-TAMRA substrate). Conditions: Table 4, biochemical assay; average of at least duplicate experiments; read-out: USP7 IC50.
Summary of the method: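 Full-length His6-USP7 (2.5 nM) incubated ± inhibitor (8-point dilutions, 200 to 0.1 μM before addition) in 50 mM HEPES pH 7.2, 150 mM NaCl, 0.5 mM EDTA, 5 mM DTT, 0.05% BSA, 0.05% CHAPS. Ubiquitin-Lys-TAMRA cleavage followed by FP (ex 530/em 575 nm) every 15 min for 1.5 h; normalised to no-compound control.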

Chain of USP7 (Q93009 whole entry): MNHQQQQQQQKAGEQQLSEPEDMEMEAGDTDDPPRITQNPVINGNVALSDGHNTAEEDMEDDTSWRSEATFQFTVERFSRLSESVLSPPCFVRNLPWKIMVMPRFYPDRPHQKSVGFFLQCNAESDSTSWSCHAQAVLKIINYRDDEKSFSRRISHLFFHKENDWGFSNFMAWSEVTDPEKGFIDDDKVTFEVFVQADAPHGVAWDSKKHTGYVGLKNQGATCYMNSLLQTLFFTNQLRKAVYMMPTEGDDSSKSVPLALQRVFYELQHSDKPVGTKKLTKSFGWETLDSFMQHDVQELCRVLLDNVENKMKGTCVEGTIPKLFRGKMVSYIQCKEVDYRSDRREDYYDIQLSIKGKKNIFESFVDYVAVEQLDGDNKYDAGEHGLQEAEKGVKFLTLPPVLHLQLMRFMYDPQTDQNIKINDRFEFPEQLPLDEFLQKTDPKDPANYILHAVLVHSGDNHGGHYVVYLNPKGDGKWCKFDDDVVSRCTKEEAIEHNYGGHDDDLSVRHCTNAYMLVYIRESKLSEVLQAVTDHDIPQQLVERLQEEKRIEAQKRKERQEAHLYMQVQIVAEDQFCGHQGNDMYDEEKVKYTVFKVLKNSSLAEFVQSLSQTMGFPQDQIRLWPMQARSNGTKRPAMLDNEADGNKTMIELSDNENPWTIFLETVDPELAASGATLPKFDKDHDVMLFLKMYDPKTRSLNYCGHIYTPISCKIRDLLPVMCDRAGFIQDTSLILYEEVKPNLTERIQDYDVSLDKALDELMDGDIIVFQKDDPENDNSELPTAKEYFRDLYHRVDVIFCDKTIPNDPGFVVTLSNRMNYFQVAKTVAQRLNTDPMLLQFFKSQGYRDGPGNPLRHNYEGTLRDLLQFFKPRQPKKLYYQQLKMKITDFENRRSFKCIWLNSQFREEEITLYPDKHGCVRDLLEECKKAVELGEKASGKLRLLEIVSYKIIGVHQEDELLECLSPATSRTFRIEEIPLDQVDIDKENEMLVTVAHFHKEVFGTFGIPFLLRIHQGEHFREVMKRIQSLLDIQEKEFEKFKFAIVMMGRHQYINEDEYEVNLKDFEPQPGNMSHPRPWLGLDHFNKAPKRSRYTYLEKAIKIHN

Q: How did the IC50 turn out when `C[C@H](CC(=O)N1CCC(O)(Cn2cnc(NCCNc3ccccc3)cc2=O)CC1)c1ccccc1` [Example 146, (R)-3-((4-hydroxy-1-(3-phenylbutanoyl)piperidin-4-yl)methyl)-6-((2-(phenylamino)ethyl)amino)pyrimidin-4(3H)-one] was run?
A: The IC50 was 1 to 200 µM.

Q: With `C[C@H](CC(=O)N1CCC(O)(Cn2cnc(N3CCCC3CNC(=O)OC(C)(C)C)cc2=O)CC1)c1ccccc1` (stereo partly drawn) [Example 147, tert-butyl ((1-(1-((4-hydroxy-1-((R)-3-phenylbutanoyl)piperidin-4-yl)methyl)-6-oxo-1,6-dihydropyrimidin-4-yl)pyrrolidin-2-yl)methyl)carbamate] as the compound, how does the IC50 read?
A: Its IC50 is 1 to 200 µM.

Q: How did the IC50 turn out when `C[C@H](CC(=O)N1CCC(O)(Cn2cnc(N3CCOC(C)(C(=O)N(C)C)C3)cc2=O)CC1)c1ccccc1` (stereo partly drawn) [Example 148, 4-(1-((4-hydroxy-1-((R)-3-phenylbutanoyl)piperidin-4-yl)methyl)-6-oxo-1,6-dihydropyrimidin-4-yl)-N,N,2-trimethylmorpholine-2-carboxamide] was run?
A: Its IC50 is 1 to 200 µM.

Q: Which IC50 does the source give for `C[C@H](CC(=O)N1CCC(O)(Cn2cnc(N3CCC(N4CCOCC4)C3)cc2=O)CC1)c1ccccc1` (stereo partly drawn) [Example 149, 3-((4-hydroxy-1-((R)-3-phenylbutanoyl)piperidin-4-yl)methyl)-6-(3-morpholinopyrrolidin-1-yl)pyrimidin-4(3H)-one] here?
A: Its IC50 is 1 to 200 µM.

Q: Which IC50 does the source give for `C[C@H](CC(=O)N1CCC(O)(Cn2cnc(N3CCC(C)(O)C3)cc2=O)CC1)c1ccccc1` (stereo partly drawn) [Example 150, 3-((4-hydroxy-1-((R)-3-phenylbutanoyl)piperidin-4-yl)methyl)-6-(3-hydroxy-3-methylpyrrolidin-1-yl)pyrimidin-4(3H)-one] here?
A: Its IC50 is 1 to 200 µM.

Q: `C[C@H](CC(=O)N1CCC(O)(Cn2cnc(NC3CCOC3)cc2=O)CC1)c1ccccc1` (stereo partly drawn) [Example 151, 3-((4-hydroxy-1-((R)-3-phenylbutanoyl)piperidin-4-yl)methyl)-6-((tetrahydrofuran-3-yl)amino)pyrimidin-4(3H)-one] was tested. Which IC50 did it give?
A: Its IC50 is 1 to 200 µM.

Q: For `C[C@H](CC(=O)N1CCC(O)(Cn2cnc(N3CCC4(CCOC4)C3)cc2=O)CC1)c1ccccc1` (stereo partly drawn) [Example 152, 3-((4-hydroxy-1-((R)-3-phenylbutanoyl)piperidin-4-yl)methyl)-6-(2-oxa-7-azaspiro[4.4]nonan-7-yl)pyrimidin-4(3H)-one], which IC50 is on record?
A: Its IC50 is 1 to 200 µM.

Q: Which IC50 does the source give for `C[C@H](CC(=O)N1CCC(O)(Cn2cnc(N3CC4CCOC4C3)cc2=O)CC1)c1ccccc1` (stereo partly drawn) [Example 153, 3-((4-hydroxy-1-((R)-3-phenylbutanoyl)piperidin-4-yl)methyl)-6-(tetrahydro-2H-furo[2,3-c]pyrrol-5(3H)-yl)pyrimidin-4(3H)-one] here?
A: The IC50 was 1 to 200 µM.

Q: For `C[C@H](CC(=O)N1CCC(O)(Cn2cnc(NCc3ccnn3C)cc2=O)CC1)c1ccccc1` [Example 154, (R)-3-((4-hydroxy-1-(3-phenylbutanoyl)piperidin-4-yl)methyl)-6-(((1-methyl-1H-pyrazol-5-yl)methyl)amino)pyrimidin-4(3H)-one], which IC50 is on record?
A: The IC50 was 1 to 200 µM.

Q: Which IC50 does the source give for `C[C@H](CC(=O)N1CCC(O)(Cn2cnc(NC3(C)COC3)cc2=O)CC1)c1ccccc1` [Example 155, (R)-3-((4-hydroxy-1-(3-phenylbutanoyl)piperidin-4-yl)methyl)-6-((3-methyloxetan-3-yl)amino)pyrimidin-4(3H)-one] here?
A: The IC50 was 1 to 200 µM.

Q: For `C[C@H](CC(=O)N1CCC(O)(Cn2cnc(N3CCC(c4ccn[nH]4)CC3)cc2=O)CC1)c1ccccc1` [Example 156, (R)-6-(4-(1H-pyrazol-5-yl)piperidin-1-yl)-3-((4-hydroxy-1-(3-phenylbutanoyl)piperidin-4-yl)methyl)pyrimidin-4(3H)-one], which IC50 is on record?
A: Its IC50 is 1 to 200 µM.

Q: `C[C@H](CC(=O)N1CCC(O)(Cn2cnc(NCc3ccc(Cl)cc3)cc2=O)CC1)c1ccccc1` [Example 157, (R)-6-((4-chlorobenzyl)amino)-3-((4-hydroxy-1-(3-phenylbutanoyl)piperidin-4-yl)methyl)pyrimidin-4(3H)-one] was tested. Which IC50 did it give?
A: Its IC50 is 1 to 200 µM.

Q: `C[C@H](CC(=O)N1CCC(O)(Cn2cnc(N3CCN(Cc4cccnc4)CC3)cc2=O)CC1)c1ccccc1` [Example 158, (R)-3-((4-hydroxy-1-(3-phenylbutanoyl)piperidin-4-yl)methyl)-6-(4-(pyridin-3-ylmethyl)piperazin-1-yl)pyrimidin-4(3H)-one] was tested. Which IC50 did it give?
A: The IC50 was 1 to 200 µM.

Q: With `C[C@H](CC(=O)N1CCC(O)(Cn2cnc(N3CCN(Cc4ccccn4)CC3)cc2=O)CC1)c1ccccc1` [Example 159, (R)-3-((4-hydroxy-1-(3-phenylbutanoyl)piperidin-4-yl)methyl)-6-(4-(pyridin-2-ylmethyl)piperazin-1-yl)pyrimidin-4(3H)-one] as the compound, how does the IC50 read?
A: The IC50 was 1 to 200 µM.

Q: With `C[C@H](CC(=O)N1CCC(O)(Cn2cnc(N3CCC(F)(F)CC3)cc2=O)CC1)c1ccccc1` [Example 160, (R)-6-(4,4-difluoropiperidin-1-yl)-3-((4-hydroxy-1-(3-phenylbutanoyl)piperidin-4-yl)methyl)pyrimidin-4(3H)-one] as the compound, how does the IC50 read?
A: The IC50 was 1 to 200 µM.

Q: For `C[C@H](CC(=O)N1CCC(O)(Cn2cnc(NCC(=O)N(C)C)cc2=O)CC1)c1ccccc1` [Example 161, (R)-2-((1-((4-hydroxy-1-(3-phenylbutanoyl)piperidin-4-yl)methyl)-6-oxo-1,6-dihydropyrimidin-4-yl)amino)-N,N-dimethylacetamide], which IC50 is on record?
A: Its IC50 is 1 to 200 µM.

Q: With `C[C@H](CC(=O)N1CCC(O)(Cn2cnc(NCc3ccc4c(c3)OCCO4)cc2=O)CC1)c1ccccc1` [Example 162, (R)-6-(((2,3-dihydrobenzo[b][1,4]dioxin-6-yl)methyl)amino)-3-((4-hydroxy-1-(3-phenylbutanoyl)piperidin-4-yl)methyl)pyrimidin-4(3H)-one] as the compound, how does the IC50 read?
A: The IC50 was 1 to 200 µM.

Q: For `C[C@H](CC(=O)N1CCC(O)(Cn2cnc(NCC3CCOCC3)cc2=O)CC1)c1ccccc1` [Example 163, (R)-3-((4-hydroxy-1-(3-phenylbutanoyl)piperidin-4-yl)methyl)-6-(((tetrahydro-2H-pyran-4-yl)methyl)amino)pyrimidin-4(3H)-one], which IC50 is on record?
A: The IC50 was 1 to 200 µM.

Q: How did the IC50 turn out when `C[C@H](CC(=O)N1CCC(O)(Cn2cnc(N3CC(C(=O)NCC4CC4)C3)cc2=O)CC1)c1ccccc1` [Example 164, (R)-N-(cyclopropylmethyl)-1-(1-((4-hydroxy-1-(3-phenylbutanoyl)piperidin-4-yl)methyl)-6-oxo-1,6-dihydropyrimidin-4-yl)azetidine-3-carboxamide] was run?
A: The IC50 was 1 to 200 µM.

Q: `C[C@H](CC(=O)N1CCC(O)(Cn2cnc(N3CC(F)C3)cc2=O)CC1)c1ccccc1` [Example 165, (R)-6-(3-fluoroazetidin-1-yl)-3-((4-hydroxy-1-(3-phenylbutanoyl)piperidin-4-yl)methyl)pyrimidin-4(3H)-one] was tested. Which IC50 did it give?
A: The IC50 was 1 to 200 µM.

Q: Which IC50 does the source give for `C[C@H](CC(=O)N1CCC(O)(Cn2cnc(N(C)CCO)cc2=O)CC1)c1ccccc1` [Example 166, (R)-3-((4-hydroxy-1-(3-phenylbutanoyl)piperidin-4-yl)methyl)-6-((2-hydroxyethyl)(methyl)amino)pyrimidin-4(3H)-one] here?
A: Its IC50 is 1 to 200 µM.

Q: With `C[C@H](CC(=O)N1CCC(O)(Cn2cnc(N3CCN(C)C(=O)C3)cc2=O)CC1)c1ccccc1` [Example 168, (R)-3-((4-hydroxy-1-(3-phenylbutanoyl)piperidin-4-yl)methyl)-6-(4-methyl-3-oxopiperazin-1-yl)pyrimidin-4(3H)-one] as the compound, how does the IC50 read?
A: The IC50 was 1 to 200 µM.

Q: With `C[C@H](CC(=O)N1CCC(O)(Cn2cnc(N3CC4(CCCO4)C3)cc2=O)CC1)c1ccccc1` [Example 169, (R)-3-((4-hydroxy-1-(3-phenylbutanoyl)piperidin-4-yl)methyl)-6-(5-oxa-2-azaspiro[3.4]octan-2-yl)pyrimidin-4(3H)-one] as the compound, how does the IC50 read?
A: The IC50 was 1 to 200 µM.

Q: `Cc1nn(C)cc1Nc1cc(=O)n(CC2(O)CCN(C(=O)C[C@@H](C)c3ccccc3)CC2)cn1` [Example 170, (R)-6-((1,3-dimethyl-1H-pyrazol-4-yl)amino)-3-((4-hydroxy-1-(3-phenylbutanoyl)piperidin-4-yl)methyl)pyrimidin-4(3H)-one] was tested. Which IC50 did it give?
A: Its IC50 is 1 to 200 µM.

Q: `C[C@H](CC(=O)N1CCC(O)(Cn2cnc(N3CC4(CN(C)CCO4)C3)cc2=O)CC1)c1ccccc1` [Example 171, (R)-3-((4-hydroxy-1-(3-phenylbutanoyl)piperidin-4-yl)methyl)-6-(8-methyl-5-oxa-2,8-diazaspiro[3.5]nonan-2-yl)pyrimidin-4(3H)-one] was tested. Which IC50 did it give?
A: The IC50 was 1 to 200 µM.

Q: With `C[C@H](CC(=O)N1CCC(O)(Cn2cnc(N3CC4(CCC4(F)F)C3)cc2=O)CC1)c1ccccc1` [Example 173, (R)-6-(5,5-difluoro-2-azaspiro[3.3]heptan-2-yl)-3-((4-hydroxy-1-(3-phenylbutanoyl)piperidin-4-yl)methyl)pyrimidin-4(3H)-one] as the compound, how does the IC50 read?
A: Its IC50 is 1 to 200 µM.

Q: Which IC50 does the source give for `C[C@H](CC(=O)N1CCC(O)(Cn2cnc(N3CCC4(CC3)COC4)cc2=O)CC1)c1ccccc1` [Example 175, (R)-3-((4-hydroxy-1-(3-phenylbutanoyl)piperidin-4-yl)methyl)-6-(2-oxa-7-azaspiro[3.5]nonan-7-yl)pyrimidin-4(3H)-one] here?
A: Its IC50 is 1 to 200 µM.

Same assay, conditions: USP7 IC50, Table 4, biochemical assay; average of at least duplicate experiments

Q: Which IC50 does the source give for `C[C@H](CC(=O)N1CCC(O)(Cn2cnc(NC3CCCC3)cc2=O)CC1)c1ccccc1` [Example 167, (R)-6-(cyclopentylamino)-3-((4-hydroxy-1-(3-phenylbutanoyl)piperidin-4-yl)methyl)pyrimidin-4(3H)-one] here?
A: The IC50 was 0.25 to 0.999 µM.

Q: `CC(=O)N1CC2(C1)CN(c1cc(=O)n(CC3(O)CCN(C(=O)C[C@@H](C)c4ccccc4)CC3)cn1)C2` [Example 172, (R)-6-(6-acetyl-2,6-diazaspiro[3.3]heptan-2-yl)-3-((4-hydroxy-1-(3-phenylbutanoyl)piperidin-4-yl)methyl)pyrimidin-4(3H)-one] was tested. Which IC50 did it give?
A: Its IC50 is 0.25 to 0.999 µM.

Q: How did the IC50 turn out when `C[C@H](CC(=O)N1CCC(O)(Cn2cnc(N3CC4(CCOCC4)C3)cc2=O)CC1)c1ccccc1` [Example 174, (R)-3-((4-hydroxy-1-(3-phenylbutanoyl)piperidin-4-yl)methyl)-6-(7-oxa-2-azaspiro[3.5]nonan-2-yl)pyrimidin-4(3H)-one] was run?
A: Its IC50 is 0.25 to 0.999 µM.
